Test results as given in US5256657A, “Succinamide derivative matrix-metalloprotease inhibitors” (Sterling Winthrop, Inc., priority 1991, dated 1993).

Target: T1, human fibroblast collagenase (Homo sapiens, UniProt P03956)
T1 construct: made in house; host or cells: human fibroblast (native enzyme by its name)
T1 sequence (P03956 100-469): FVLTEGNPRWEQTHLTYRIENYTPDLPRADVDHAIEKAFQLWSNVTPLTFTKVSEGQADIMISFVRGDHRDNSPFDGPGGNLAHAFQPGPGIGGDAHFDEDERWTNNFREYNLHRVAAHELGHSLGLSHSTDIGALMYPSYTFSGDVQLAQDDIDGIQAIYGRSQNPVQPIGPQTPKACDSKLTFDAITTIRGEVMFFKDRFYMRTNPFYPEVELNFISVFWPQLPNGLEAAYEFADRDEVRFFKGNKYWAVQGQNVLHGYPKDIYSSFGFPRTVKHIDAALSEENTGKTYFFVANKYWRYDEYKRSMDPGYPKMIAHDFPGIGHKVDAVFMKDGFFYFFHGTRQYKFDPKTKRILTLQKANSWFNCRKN
Assay: Inhibition of Human Fibroblast Collagenase (in vitro, H-Pro-Met-Ala-Leu-Trp-NHCH3 substrate, fluorescamine detection)
Format: biochemical
Conditions: trypsin-activated enzyme 25 nM; substrate 375 μM; pH 7.5; DMSO not exceeding 5%; 90 minutes; calculated from competitive inhibitor equation; read-out: IC50 (half-maximal inhibitory concentration), Inhibition of Human Fibroblast Collagenase
Experimental: As stated above the compounds of Formula I are matrix-metalloprotease inhibitors useful in treatment of disease in which matrix-metalloprotease promoted connective tissue remodelling is a causative factor, for example, rheumatoid arthritis and cancer.
Human fibroblast collagenase was purified as described by Fields et al. (The Journal of Biological Chemistry, vol. 262, pp. 6221-6226, 1987), activated with trypsin and used at a concentration of 25 nM. H-Pro-Met-Ala-Leu-Trp-NHCH3 (Netzel-Arnett et al., The Journal of Biological Chemistry, vol 266, pp. 6747-6755, 1991) was used as substrate at a concentration of 375 μM. Fluorescamine was used to detect the products of enzymolysis. […] Product concentrations were measured at intervals throughout the test period (90 minutes). The half-maximal inhibitory concentration (IC50) of the test compound was calculated from the equation for a competitive inhibitor using percent inhibition values between 20% and 80%. The products of parts B and C of example 2 and parts B and C. of example 3 were tested and the following results were obtained.

**Q.** For `CC(C)C[C@H](CC(=O)NO)C(=O)N[C@@H](Cc1c[nH]c2ccccc12)C(=O)NCCSCCN1CCOCC1` [Example 3C], which IC50 is on record?
**A.** 0.015 µM

**Q.** For `CC(C)C[C@H](CC(=O)NO)C(=O)N[C@@H](Cc1c[nH]c2ccccc12)C(=O)NCCSCCN(C)C` [Example 2C], which IC50 is on record?
**A.** 0.02 µM

**Q.** How did the IC50 turn out when `CC(C)C[C@H](CC(=O)O)C(=O)N[C@@H](Cc1c[nH]c2ccccc12)C(=O)NCCSCCN(C)C` [Example 2B] was run?
**A.** 8.8 µM

**Q.** For `CC(C)C[C@H](CC(=O)O)C(=O)N[C@@H](Cc1c[nH]c2ccccc12)C(=O)NCCSCCN1CCOCC1` [Example 3B], which IC50 is on record?
**A.** 4.5 µM
